Laboratory results reported in the NIST ThermoML archive (doi:10.1021/je049960h).

Details: 101.33 kPa, Liquid; for viscosity: Capillary tube (Ostwald / Ubbelohde) method; for mass density: Pycnometric method; for thermal conductivity: Hot wire method

OCCCOCCCO [4-oxa-1,7-heptanediol]
Details | mass density [kg/m3] | thermal conductivity [W/m/K] | viscosity [mPa·s]
297.42 K | – | – | 81.5
297.45 K | 1020 | – | –
298.2 K | – | 0.156 | –
309.8 K | – | 0.157 | –
313.05 K | 1008 | – | –
313.07 K | – | – | 29.8
316.9 K | – | 0.156 | –
333.1 K | 992.4 | – | 11.1
347.4 K | – | 0.156 | –
353.1 K | 976.1 | – | 5.24
363 K | – | 0.156 | –
372.25 K | 960.3 | – | 3
377.6 K | – | 0.155 | –
391.45 K | 943.1 | – | 1.9
391.6 K | – | 0.154 | –
405.7 K | – | 0.153 | –
408.35 K | 928.1 | – | 1.36
420.3 K | 916.9 | – | 1.1
420.6 K | – | 0.151 | –
428.3 K | 909.6 | – | 0.97
435.1 K | – | 0.149 | –

CC(O)COC(C)COC(C)CO (stereo not drawn) [2-[2-(2-hydroxypropoxy)propoxy]-1-propanol]
Details | mass density [kg/m3] | thermal conductivity [W/m/K] | viscosity [mPa·s]
294.82 K | – | – | 69.4
295.01 K | 1017 | – | –
298.1 K | – | 0.152 | –
313.05 K | 1003 | – | 23.6
326.1 K | – | 0.152 | –
333.1 K | 986.4 | – | 9.64
351.1 K | – | 0.15 | –
353.1 K | 969.9 | – | 4.85
372.15 K | 953.5 | – | 2.91
376.2 K | – | 0.148 | –
391.5 K | 936.4 | – | 1.91
399.4 K | – | 0.145 | –
411.35 K | 918.7 | – | 1.33
424.9 K | – | 0.14 | –
428.2 K | 903.3 | – | 1.03
449.6 K | – | 0.135 | –

CC(O)CO (stereo not drawn) [1,2-propanediol]
Details | mass density [kg/m3] | thermal conductivity [W/m/K] | viscosity [mPa·s]
297.25 K | – | – | 46.4
298.85 K | 1033 | – | –
299.1 K | – | 0.196 | –
302.55 K | – | – | 34
313.6 K | – | 0.195 | –
317.1 K | – | – | 16.4
318.05 K | 1018 | – | –
332.3 K | – | – | 8.75
332.9 K | – | 0.195 | –
339 K | 1003 | – | –
347.4 K | – | – | 5.26
352.3 K | – | 0.194 | –
359.4 K | 986.1 | – | –
362.05 K | – | – | 3.42
371.6 K | – | 0.193 | –
376.45 K | – | – | 2.34
380.95 K | 967.6 | – | –
391.05 K | – | – | 1.67
391.1 K | – | 0.192 | –
399.6 K | 951.2 | – | –
406.05 K | – | – | 1.27
411.4 K | – | 0.19 | –
420.2 K | 931.7 | – | –
420.85 K | – | – | 0.982
430.4 K | – | 0.187 | –
440.35 K | 912.2 | – | –
450.8 K | – | 0.183 | –
